Data as given in ChEMBL document CHEMBL4130596, “Adding a Hydrogen Bond May Not Help: Naphthyridinone vs Quinoline Inhibitors of Macrophage Migration Inhibitory Factor” (ACS Med Chem Lett, 2017).
Values after ≈ are worked out from the molar mass of the structure shown.

Assay: Aqueous solubility of the compound in Britton-Robinson buffer after 48 hrs at pH 6.5 by UV-vis spectrophotometry based shake flask method
Format: physicochemical

- solubility thermodynamic at 48 h: 288 µg/mL (≈ 755 µM)
Structure (SMILES): O=C(O)Cn1ccc2ccc(-c3cn(-c4ccc(O)c(F)c4)nn3)nc2c1=O
